pIC50: −log10 of the molar value. Starred links: 1 amine or outer side, 2 acyl side, 3 side chain; linkers in the order of their positions; H or OH if unused. Non-standard residues stand in square brackets, D forms with d. Residues, ends and D or L forms follow the SMILES beside them. *: point of attachment. Dolaproine = CO[C@@H]([C@@H]1CCCN1)[C@@H](C)C(=O)O; Hexanoyl(6-maleimido) = O=C1C=CC(=O)N1CCCCCC(=O)*; Dil = CC[C@H](C)[C@H](NC)[C@@H](CC(=O)O)OC; PABC = O=C(OCc1ccc(N[*:1])cc1)[*:2]; X1 = C[C@@H](N*)[C@@H](O)c1ccccc1; Cit = NC(=O)NCCC[C@H](N)C(=O)O; NMeV = CN[C@H](C(=O)O)C(C)C
Tests used:
[1] = test system: PSMA-positive cell line LNCaP-C4.2; test: In vitro cytotoxicity, PSMA-positive cell line; type: cell-based, human; conditions: for % efficacy: at the highest concentration tested (~100 nM)
[2] = test system: 5T4-positive cell line MDA-MB-468; test: In vitro cytotoxicity, 5T4-positive cell line; type: cell-based, human; conditions: anti-5T4-vc-seco-DUBA ADCs
Experimental: The potencies of the engineered anti-5T4 ADCs were equal to the conventionally linked ADC H8-wt on 5T4-expressing MDA-MB-468 cells (IC50 between 0.07 and 0.09 nM, Table 6).

CC[C@H](C)[C@@H]([C@@H](CC(=O)N1CCC[C@H]1[C@H](OC)[C@@H](C)C(=O)N[C@H](C)[C@@H](O)c1ccccc1)OC)N(C)C(=O)[C@@H](NC(=O)[C@H](C(C)C)N(C)C(=O)OCc1ccc(NC(=O)[C@H](CCCNC(N)=O)NC(=O)[C@@H](NC(=O)CCCCCN2C(=O)C=CC2=O)C(C)C)cc1)C(C)C [Free linker drug (vc-MMAE), vc-MMAE] ({Hexanoyl(6-maleimido)}-V[Cit][PABC][NMeV]V[Dil][Dolaproine]-X1)
pIC50 ([1]; anti-PSMA-vc-MMAE ADCs): 9.64
% efficacy ([1]; anti-PSMA-vc-MMAE ADCs): 94%

Cc1cccc2c(OC(=O)N(CCOCCO)CCN(C)C(=O)OCc3ccc(NC(=O)[C@H](CCCNC(N)=O)NC(=O)[C@@H](NC(=O)OCCOCCN4C(=O)C=CC4=O)C(C)C)cc3)cc3c(c12)[C@H](CCl)CN3C(=O)c1cn2cc(NC(=O)c3ccc(O)cc3)ccc2n1 [Free linker drug, vc-seco-DUBA]
% efficacy ([1]; anti-PSMA-vc-seco-DUBA ADCs): 98%
pIC50 ([1]; anti-PSMA-vc-seco-DUBA ADCs, based on drug equivalents): 10.70
pIC50 [2]: 10.70
% efficacy ([2]; at the highest concentration tested (~100 nM)): 94%

Reference: patent US11104968B2, “Site-specific conjugation of linker drugs to antibodies and resulting ADCS” (Byondis B.V., priority 2014, dated 2021)
